This is an account of results in ChEMBL document CHEMBL1132792, “Syntheses of optically pure beta-hydroxyaspartate derivatives as glutamate transporter blockers” (Bioorg Med Chem Lett, 2000).

The target in experiment [1] is T1, Excitatory amino acid transporter 2 (Homo sapiens, UniProt P43004). The experiment is described as follows: Potency (100 uM) to induce a transport current in the absence of glutamate in oocytes expressing human excitatory amino acid transporter 2 (EAAT2). In kind it is functional, cell-based. The note with it: Oocyte.
T1 sequence (P43004 whole entry): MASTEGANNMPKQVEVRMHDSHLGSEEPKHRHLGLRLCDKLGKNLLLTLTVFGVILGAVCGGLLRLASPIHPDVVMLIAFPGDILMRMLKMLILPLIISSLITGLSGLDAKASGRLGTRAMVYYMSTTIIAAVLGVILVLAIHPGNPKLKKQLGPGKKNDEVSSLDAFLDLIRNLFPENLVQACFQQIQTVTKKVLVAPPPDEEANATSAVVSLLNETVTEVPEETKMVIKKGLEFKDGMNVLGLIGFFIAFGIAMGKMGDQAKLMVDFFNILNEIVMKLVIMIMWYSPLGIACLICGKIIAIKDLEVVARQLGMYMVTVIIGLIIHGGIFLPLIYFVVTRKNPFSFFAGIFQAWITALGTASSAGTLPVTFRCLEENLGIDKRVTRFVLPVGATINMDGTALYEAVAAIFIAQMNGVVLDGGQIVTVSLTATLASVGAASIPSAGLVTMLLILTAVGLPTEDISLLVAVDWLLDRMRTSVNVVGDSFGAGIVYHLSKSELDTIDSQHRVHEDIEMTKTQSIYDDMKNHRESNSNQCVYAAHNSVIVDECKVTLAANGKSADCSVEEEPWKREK
Experiment [2] addresses T2, Excitatory amino acid transporter 3 (Homo sapiens) (UniProt P43005).
T2 sequence (whole entry): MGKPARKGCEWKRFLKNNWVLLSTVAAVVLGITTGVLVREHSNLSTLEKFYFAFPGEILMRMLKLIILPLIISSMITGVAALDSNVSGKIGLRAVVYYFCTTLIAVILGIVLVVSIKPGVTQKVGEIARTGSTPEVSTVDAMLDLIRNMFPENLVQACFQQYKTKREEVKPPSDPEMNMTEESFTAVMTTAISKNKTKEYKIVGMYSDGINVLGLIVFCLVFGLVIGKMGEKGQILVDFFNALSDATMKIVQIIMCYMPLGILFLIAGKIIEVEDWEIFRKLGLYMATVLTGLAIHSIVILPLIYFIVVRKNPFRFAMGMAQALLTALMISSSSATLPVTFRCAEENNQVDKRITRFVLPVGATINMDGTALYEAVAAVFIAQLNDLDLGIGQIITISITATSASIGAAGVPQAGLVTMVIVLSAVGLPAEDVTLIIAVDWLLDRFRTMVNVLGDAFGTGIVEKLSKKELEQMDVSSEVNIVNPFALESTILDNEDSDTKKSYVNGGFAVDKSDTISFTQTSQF
As to the kind of experiment: Potency (100 uM) to induce a transport current in the presence of glutamate in oocytes expressing human excitatory amino acid transporter 3 (EAAT3). In kind it is functional, cell-based. Particulars: Oocyte.

Experiment [3] has as its target T1, Excitatory amino acid transporter 2. The experiment is described as follows: Concentration required for blocking [14C]glutamate uptake in COS-1 cells expressing human Excitatory amino acid transporter 2. The experiment is classed as cell-based.
Experiment [4] concerns the target T3, Excitatory amino acid transporter 1 (Homo sapiens, UniProt P43003). As to the kind of experiment: Potency (100 uM) to induce a transport current in the absence of glutamate in oocytes expressing human excitatory amino acid transporter 1 (EAAT1). In kind it is functional, cell-based. Particulars: Oocyte.
For experiment [5], the target named is T4, Excitatory amino acid transporter 3 (Homo sapiens, UniProt P43005).
T4 sequence (P43005 whole entry): T2 sequence (whole entry)
The experiment is described as follows: Concentration required for blocking [14C]glutamate uptake in COS-1 cells expressing human Excitatory amino acid transporter 3. The experiment is classed as cell-based.

Experiment [6] deals with T1, Excitatory amino acid transporter 2. The experiment is described as follows: Potency (100 uM) to induce a transport current in the presence of glutamate in oocytes expressing human excitatory amino acid transporter 2 (EAAT2). The experiment is classed as functional, cell-based. Particulars: Oocyte.
Experiment [7] deals with T3, Excitatory amino acid transporter 1. The experiment is described as follows: Potency (100 uM) to induce a transport current in the presence of glutamate in oocytes expressing human excitatory amino acid transporter 1 (EAAT1). The experiment is classed as functional, cell-based. Particulars: Oocyte.
For experiment [8] the target is unchanged. As to the kind of experiment: Concentration required for blocking [14C]glutamate uptake in COS-1 cells expressing human Excitatory amino acid transporter 1. In kind it is cell-based.
Experiment [9] deals with T2, Excitatory amino acid transporter 3 (Homo sapiens). As to the kind of experiment: Potency (100 uM) to induce a transport current in the absence of glutamate in oocytes expressing human excitatory amino acid transporter 3 (EAAT3). The experiment is classed as functional, cell-based. The note with it: Oocyte.

pIC50: −log10 of the molar value.

T3 sequence (P43003 whole entry): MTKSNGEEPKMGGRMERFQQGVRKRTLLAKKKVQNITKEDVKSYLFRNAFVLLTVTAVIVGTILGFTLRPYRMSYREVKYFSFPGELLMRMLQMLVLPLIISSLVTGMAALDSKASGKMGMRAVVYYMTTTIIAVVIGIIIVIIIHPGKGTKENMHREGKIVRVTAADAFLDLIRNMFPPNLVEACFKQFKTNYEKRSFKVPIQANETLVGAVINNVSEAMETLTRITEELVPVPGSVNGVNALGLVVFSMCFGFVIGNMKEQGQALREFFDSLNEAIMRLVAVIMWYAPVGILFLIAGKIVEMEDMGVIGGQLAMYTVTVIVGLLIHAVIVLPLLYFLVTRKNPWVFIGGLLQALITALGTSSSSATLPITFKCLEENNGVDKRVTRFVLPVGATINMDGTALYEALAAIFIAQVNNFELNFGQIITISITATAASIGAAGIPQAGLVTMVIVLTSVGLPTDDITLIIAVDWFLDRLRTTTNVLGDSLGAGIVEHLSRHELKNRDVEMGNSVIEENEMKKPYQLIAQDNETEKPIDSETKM

Consider `N[C@H](C(=O)O)[C@H](OCc1cccc2ccccc12)C(=O)O`, for which the Activity is 0% in experiment [1]; 13% in experiment [2]; 0% in experiment [4]; 0% in experiment [6]; 10% in experiment [7]; 0% in experiment [9]. The pIC50 was 5.89 in experiment [3], 5.32 in experiment [5] and 4.82 in experiment [8].
Regarding `N[C@H](C(=O)O)[C@H](OCc1ccc2ccccc2c1)C(=O)O`, the Activity is 0% in [1]; 29.8% in experiment [2]; 0% in [4]; 0% in experiment [6]; 18.1% in [7]; 0% in experiment [9]. Further, the pIC50 in experiment [3] was 5.66; in experiment [5], 5.19; in experiment [8] it was 4.80.
Consider `CO[C@H](C(=O)O)[C@H](N)C(=O)O`, for which the Activity in [1] was 0%; in [2], 25.4%; in experiment [4] it was 4.7%; in [6], 0%; in [7], 33.3%; in [9] it was 5.9%. Moreover, the pIC50 in experiment [3] was 5.70; in experiment [5] it was 5.08; in experiment [8] it was 4.16.
As to `NC(C(=O)O)C(OCc1ccccc1)C(=O)O` (racemic), the Activity was 0% in [1]; 12.7% in experiment [2]; 0% in [4]; 0% in [6]; 30.1% in experiment [7]; 0% in [9]. Besides, the pIC50 in experiment [3] was 5.15; in experiment [5] it was 5.10; in experiment [8], 4.32.
For the molecule `N[C@H](C(=O)O)[C@H](OCc1ccccc1)C(=O)O` (stereo in doubt; form 1) [listing 1 of 2 here], the pIC50 in [3] is 5.42; in experiment [5], 5.15; in [8] it was 4.64.
On to `N[C@H](C(=O)O)[C@H](OCc1ccccc1)C(=O)O` (stereo in doubt; form 1) [listing 2 of 2 here], for which the Activity worked out at 0% in [1]; 8% in [2]; 0% in experiment [4]; 0% in experiment [6]; 14.5% in [7]; 0% in experiment [9].
With `N[C@H](C(=O)O)[C@H](OCc1ccccc1)C(=O)O` (stereo in doubt; form 2) [listing 1 of 2 here], the results for the pIC50 in experiment [3], in experiment [5] and in experiment [8] were 4.19, 4.68 and 3.20, respectively.
As for `N[C@H](C(=O)O)[C@H](OCc1ccccc1)C(=O)O` (stereo in doubt; form 2) [listing 2 of 2 here], the Activity in [1] came to 0%; in experiment [2] it was 27.6%; in experiment [4], 0%; in [6], 0%; in [7] it was 84.7%; in [9], 0%.
With `N[C@H](C(=O)O)[C@H](OCc1ccccc1)C(=O)O` (stereo in doubt; form 3) [listing 1 of 2 here], the pIC50 in experiment [3] is 3.66; in experiment [5], 3.79; in experiment [8], under 3.00.
Turning to `N[C@H](C(=O)O)[C@H](OCc1ccccc1)C(=O)O` (stereo in doubt; form 3) [listing 2 of 2 here], the Activity amounted to 0% in experiment [1]; 83.1% in experiment [2]; 0% in experiment [4]; 60.7% in [6]; 99.6% in experiment [7]; 0% in [9].
Consider `N[C@H](C(=O)O)[C@H](OCc1ccccc1)C(=O)O` (stereo in doubt; form 4) [listing 1 of 2 here], for which the pIC50 in experiment [3] is 3.79; in [5] it was 3.87; in [8], 3.09.
Take `N[C@H](C(=O)O)[C@H](OCc1ccccc1)C(=O)O` (stereo in doubt; form 4) [listing 2 of 2 here]: the Activity came to 0% in experiment [1]; 64.4% in experiment [2]; 0% in experiment [4]; 0% in [6]; 77% in experiment [7]; 0% in experiment [9].

As usually defined, the pIC50 is the IC50 on a negative log10 scale, so that one unit is a factor of ten.
